Measurements from patent US20240018146A1, “COMPOSITIONS AND METHODS OF USING THE SAME FOR TREATMENT OF NEURODEGENERATIVE AND MITOCHONDRIAL DISEASE” (MITOKININ, INC., priority 2020, published 2024).
Where two headings read alike, the source gives them in different places.

What was measured:
[1] = test system: HeLa MKYP cells; assay: Human mitophagy assay (HeLa mKeima assay, FACS); assay type: cell-based; conditions: read-out: Mitophagy induction EC50
Procedure, shortened: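 HeLa cells carrying the pH-sensitive mtKeima tag incubated 16 h with compound at several concentrations, then 1 uM FCCP/oligomycin for 6 h. FACS detects mitochondria in lysosomes through the Keima emission shift, quantified as percentage of cells in mitophagy.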

[2] = test system: HeLa MKYP cells; assay: Cell death measured by DAPI staining, with 1 μM FCCP/oligomycin or no toxin (no FO); assay type: cell-based
Procedure, shortened: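 HeLa MKYP cells were treated with compounds alongside 1 μM FCCP/oligomycin or no toxin for 6 or 6.5 h. Cell death was scored by DAPI staining, with H2O2 treatment as the death control.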

Row | Compound | EC50 ([1]; Homo sapiens, HeLa) | Highest safe dose (cytotoxicity; no FO; safe means DAPI+ <20%) [2] | Max % death with 1 μM FO [2] | EC50 [1]
1 | FC(F)(F)c1cc2c(N[C@@H]3c4ccccc4OC[C@H]3C3CCCOC3)ncnc2[nH]1 (stereo partly drawn) [EP-0041003] | > 25 µM | 25.0 µM | 5.3% | 
2 | C[C@@H]1CN([C@H]2COc3cc(F)ccc3[C@@H]2Nc2ncnc3[nH]c(C(F)(F)F)cc23)CCO1 [EP-0041087] | 9.38 µM | 25.0 µM | 5.1% | 
3 | C[C@@H]1CN([C@@H]2COc3cc(F)ccc3[C@H]2Nc2ncnc3[nH]c(C4CC4)cc23)CCO1 [EP-0041123] | 11 µM | 25.0 µM | 7.3% | 
4 | C[C@H]1CN([C@H]2COc3cc(F)ccc3[C@@H]2Nc2ncnc3[nH]c(C4CC4)cc23)CCO1 [EP-0041124] | 5.32 µM | 25.0 µM | 12.7% | 
5 | OC(C1CCOCC1)[C@H]1COc2ccccc2[C@@H]1Nc1ncnc2[nH]c(C(F)(F)F)cc12 (stereo partly drawn) [EP-0041135] | 1.53 µM | 25.0 µM | 15.7% | 
6 | CO[C@@H]1CCN([C@@H]2COc3ccccc3[C@H]2Nc2ncnc3[nH]c(C(F)(F)F)cc23)C1 [EP-0041162] | > 25 µM | 25.0 µM | 4.2% | 
7 | CO[C@H]1CCN([C@@H]2COc3ccccc3[C@H]2Nc2ncnc3[nH]c(C(F)(F)F)cc23)C1 [EP-0041173] | 4.09 µM | 25.0 µM | 6.1% | 
8 | COCC1CC([C@H]2COc3ccccc3[C@@H]2Nc2ncnc3[nH]c(C(F)(F)F)cc23)C1 (stereo partly drawn) [EP-0041260] | 0.85 µM | 25.0 µM | 10.2% | 
9 | N#CC1CN([C@H]2COc3ccccc3[C@@H]2Nc2ncnc3[nH]c(C(F)(F)F)cc23)C1 [EP-0041332] | 1.54 µM | 25.0 µM | 11.7% | 
10 | CC(C)OC1CN([C@H]2COc3ccccc3[C@@H]2Nc2ncnc3[nH]c(C(F)(F)F)cc23)C1 [EP-0041465] | 6.85 µM | 25.0 µM | 4.6% | 
11 | COC(C)(C)C1CN([C@H]2COc3ccccc3[C@@H]2Nc2ncnc3[nH]c(C(F)(F)F)cc23)C1 [EP-0041480] | 2.69 µM | 25.0 µM | 4.6% | 
12 | CS(=N)(=O)C1CN(C2COc3ccccc3C2Nc2ncnc3[nH]c(C(F)(F)F)cc23)C1 (stereo not drawn) [EP-0041496] | > 25 µM | 25.0 µM | 3.4% | 
13 | CO[C@H]1CCN([C@@H]2COc3ccccc3[C@H]2Nc2ncnc3[nH]c(C4CC4)cc23)C1 [EP-0041518] | > 25 µM | 25.0 µM | 7.4% | 
14 | COC[C@H]1CCN([C@H]2COc3ccccc3[C@@H]2Nc2ncnc3[nH]c(C4CC4)cc23)C1 [EP-0041547] |  | 25.0 µM | 8.2% | 7.29 µM
15 | COC[C@H]1CCCN1[C@H]1COc2ccccc2[C@@H]1Nc1ncnc2[nH]c(C(F)(F)F)cc12 [EP-0041553] | 15.2 µM | 25.0 µM | 5.7% | 
